# Results reported in PubChem BioAssay (NCI).
#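 Dose response: 5 concentrations. Exposure: 48 h. Format: 96-well plates. Endpoint: linear interpolation; highest concentration if not reached. Abbreviation: GI50, concentration required for 50% inhibition of growth. TGI: concentration producing complete growth inhibition.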
# Key:
# Experiment in all cases: growth of human tumour cells (NCI), 48 h
# [1] = test system: MDA-MB-435
# [2] = test system: OVCAR-8 ovarian
# [3] = test system: NCI-H522 lung
# [4] = test system: DU-145 prostate
# [5] = test system: HL-60(TB) leukemia
# [6] = test system: A549 NSCLC
# [7] = test system: UO-31 renal
# [8] = test system: NCI-H226 lung
# [9] = test system: SK-MEL-28 melanoma
# [10] = test system: SK-MEL-5 melanoma
# [11] = test system: RXF 393 renal
# [12] = test system: SK-OV-3 ovarian
# [13] = test system: CCRF-CEM leukemia
# [14] = test system: SK-MEL-2 melanoma
# [15] = test system: 786-0 renal
# [16] = test system: K-562 leukemia
# [17] = test system: PC-3 prostate
# [18] = test system: HOP-92 NSCLC
# [19] = test system: EKVX NSCLC
# [20] = test system: ACHN renal
# [21] = test system: SW-620 colon
# [22] = test system: U251 CNS
# [23] = test system: T-47D breast
# [24] = test system: BT-549 breast
# [25] = test system: SF-295 CNS
# [26] = test system: A498 renal
# [27] = test system: IGROV1 ovarian
# [28] = test system: HCC-2998 colon
# [29] = test system: HCT-15 colon
# [30] = test system: SNB-19 CNS
# [31] = test system: RPMI-8226 leukemia
# [32] = test system: MDA-MB-231 breast
# [33] = test system: TK-10 renal
# [34] = test system: OVCAR-5 ovarian
# [35] = test system: NCI-H460 lung
# [36] = test system: SF-539 CNS
# [37] = test system: OVCAR-4 ovarian
# [38] = test system: HT29 colon
# [39] = test system: MCF7 breast
# [40] = test system: NCI/ADR-RES ovarian
# [41] = test system: SR leukemia
# [42] = test system: CAKI-1 renal
# [43] = test system: LOX IMVI melanoma
# [44] = test system: M14 melanoma
# [45] = test system: UACC-62 melanoma
# [46] = test system: SN12C renal
# [47] = test system: SF-268 CNS
# [48] = test system: HCT-116 colon
# [49] = test system: UACC-257 melanoma
# [50] = test system: COLO 205 colon
# [51] = test system: SNB-75 CNS
# [52] = test system: MOLT-4 leukemia
# [53] = test system: HOP-62 NSCLC
# [54] = test system: MALME-3M melanoma
# [55] = test system: HS 578T breast
# [56] = test system: OVCAR-3 ovarian
# [57] = test system: KM12 colon
smiles,measurement,setting,value
CS(=O)(=O)c1nccc(-c2c(-c3ccc(F)c(OCCc4ccc(F)cc4)c3)nc3sccn23)n1,GI50,[1],15.9 µM
same,TGI,[1],29.3 µM
same,GI50,[2],15.5 µM
same,TGI,[2],33.2 µM
same,GI50,[3],11.7 µM
same,TGI,[3],28.1 µM
same,GI50,[4],2.07 µM
same,TGI,[4],4.32 µM
same,GI50,[5],3.23 µM
same,TGI,[5],9.31 µM
same,GI50,[6],16.1 µM
same,TGI,[6],30.5 µM
same,GI50,[7],10.2 µM
same,TGI,[7],21.8 µM
same,GI50,[8],14.5 µM
same,TGI,[8],35 µM
same,GI50,[9],11.9 µM
same,TGI,[9],24.5 µM
same,GI50,[10],16.5 µM
same,TGI,[10],30.8 µM
same,GI50,[11],15 µM
same,TGI,[11],29.2 µM
same,GI50,[12],13.5 µM
same,TGI,[12],26.5 µM
same,GI50,[13],14.2 µM
same,TGI,[13],33.2 µM
same,GI50,[14],15.7 µM
same,TGI,[14],30.7 µM
same,GI50,[15],14.9 µM
same,TGI,[15],30 µM
same,GI50,[16],15 µM
same,TGI,[16],53.8 µM
same,GI50,[17],10.9 µM
same,TGI,[17],27.2 µM
same,GI50,[18],4.7 µM
same,TGI,[18],18.8 µM
same,GI50,[19],12.7 µM
same,TGI,[19],25.4 µM
same,GI50,[20],2.74 µM
same,TGI,[20],7.33 µM
same,GI50,[21],15.2 µM
same,TGI,[21],30.6 µM
same,GI50,[22],15.9 µM
same,TGI,[22],29.7 µM
same,GI50,[23],2.7 µM
same,TGI,[23],7.57 µM
same,GI50,[24],14 µM
same,TGI,[24],27.6 µM
same,GI50,[25],17 µM
same,TGI,[25],31.6 µM
same,GI50,[26],9.97 µM
same,TGI,[26],21.5 µM
same,GI50,[27],5.9 µM
same,TGI,[27],24.6 µM
same,GI50,[28],3.48 µM
same,TGI,[28],11.3 µM
same,GI50,[29],12.5 µM
same,TGI,[29],27.8 µM
same,GI50,[30],15.2 µM
same,TGI,[30],33.9 µM
same,GI50,[31],4.34 µM
same,TGI,[31],28.1 µM
same,GI50,[32],17 µM
same,TGI,[32],37.8 µM
same,GI50,[33],15.1 µM
same,TGI,[33],28.3 µM
same,GI50,[34],15.5 µM
same,TGI,[34],30.4 µM
same,GI50,[35],4.25 µM
same,TGI,[35],16.3 µM
same,GI50,[36],15.5 µM
same,TGI,[36],30 µM
same,GI50,[37],14.9 µM
same,TGI,[37],30.4 µM
same,GI50,[38],15.2 µM
same,TGI,[38],30.6 µM
same,GI50,[39],1.85 µM
same,TGI,[39],4.31 µM
same,GI50,[40],17.4 µM
same,TGI,[40],39 µM
same,GI50,[41],12.3 µM
same,TGI,[41],36.9 µM
same,GI50,[42],13.5 µM
same,TGI,[42],26.4 µM
same,GI50,[43],13 µM
same,TGI,[43],27.6 µM
same,GI50,[44],16.6 µM
same,TGI,[44],30.9 µM
same,GI50,[45],15.4 µM
same,TGI,[45],35.5 µM
same,GI50,[46],13.8 µM
same,TGI,[46],30.6 µM
same,GI50,[47],16.4 µM
same,TGI,[47],36.9 µM
same,GI50,[48],12.9 µM
same,TGI,[48],25.5 µM
same,GI50,[49],12.3 µM
same,TGI,[49],25.4 µM
same,GI50,[50],17.1 µM
same,TGI,[50],32.5 µM
same,GI50,[51],11.4 µM
same,TGI,[51],23.6 µM
same,GI50,[52],14.3 µM
same,TGI,[52],34.5 µM
same,GI50,[53],15.3 µM
same,TGI,[53],31.2 µM
same,GI50,[54],17.2 µM
same,TGI,[54],31.7 µM
same,GI50,[55],12.5 µM
same,TGI,[55],43.8 µM
same,GI50,[56],7.11 µM
same,TGI,[56],20.8 µM
same,GI50,[57],13 µM
same,TGI,[57],28.5 µM
